Results on two molecules are retold here after ChEMBL document CHEMBL1212717, “A new screening assay for allosteric inhibitors of cSrc” (Nat Chem Biol, 2009).

For test [1], the target named is T1, Proto-oncogene tyrosine-protein kinase Src (Homo sapiens, UniProt P12931).
Test [2] addresses T2, Mitogen-activated protein kinase 14 (Homo sapiens, UniProt Q16539).
The target in test [3] is T2, Mitogen-activated protein kinase 14. To be noted: 2 uM.
Test [4] has as its target T1, Proto-oncogene tyrosine-protein kinase Src. To be noted: 2 uM.

T2 sequence (Q16539 whole entry): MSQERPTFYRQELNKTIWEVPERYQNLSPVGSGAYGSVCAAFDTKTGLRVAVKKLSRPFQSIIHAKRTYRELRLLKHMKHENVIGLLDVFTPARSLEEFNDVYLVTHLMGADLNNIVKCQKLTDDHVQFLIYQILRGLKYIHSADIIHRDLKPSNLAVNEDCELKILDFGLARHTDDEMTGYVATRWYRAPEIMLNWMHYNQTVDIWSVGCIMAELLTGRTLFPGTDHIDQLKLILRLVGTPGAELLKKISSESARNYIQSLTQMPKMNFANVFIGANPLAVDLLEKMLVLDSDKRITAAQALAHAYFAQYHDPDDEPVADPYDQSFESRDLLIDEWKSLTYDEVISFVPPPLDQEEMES
T1 sequence (P12931 2-536 limits assumed): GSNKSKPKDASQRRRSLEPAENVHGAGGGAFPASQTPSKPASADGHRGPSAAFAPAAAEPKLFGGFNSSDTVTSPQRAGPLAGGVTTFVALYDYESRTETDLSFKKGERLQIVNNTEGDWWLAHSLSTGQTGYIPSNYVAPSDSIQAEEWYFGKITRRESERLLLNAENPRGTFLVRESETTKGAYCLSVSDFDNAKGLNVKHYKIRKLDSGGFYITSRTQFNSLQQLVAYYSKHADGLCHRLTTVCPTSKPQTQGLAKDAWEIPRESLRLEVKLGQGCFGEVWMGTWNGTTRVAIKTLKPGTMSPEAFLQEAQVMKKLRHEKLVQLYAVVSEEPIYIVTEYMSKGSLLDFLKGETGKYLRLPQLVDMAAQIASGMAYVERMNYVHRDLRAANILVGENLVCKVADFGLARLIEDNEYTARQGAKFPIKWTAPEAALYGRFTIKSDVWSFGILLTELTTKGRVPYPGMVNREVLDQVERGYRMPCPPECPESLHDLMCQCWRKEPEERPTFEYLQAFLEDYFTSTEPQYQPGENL

Turning to `CC(C)(C)c1cc(NC(=O)Nc2ccc(Cl)cc2)n(-c2c(Cl)cc(C(F)(F)F)cc2Cl)n1`, the IC50 result in test [1] is given as “Not Active”. In test [2], the Kd entry is “Not Active”.
Take `CC(C)(C)c1cc(NC(=O)Nc2ccc(Cl)cc2)n(-c2cccc(N)c2)n1`: the T1/2 in test [3] is 43.6 s; in test [4] it was 5.35 s.
